Key:
HepG2 cells = experiment: Apo A-I / prebeta-HDL secretion by HepG2 cells; format: cell-based
[1] = tested on: plasma LDL from WHHL rabbits; experiment: Association of 125I-labelled peptide with WHHL rabbit plasma lipoproteins (CLiP); format: binding
Procedure: 100 μg of the ^125I-labelled peptide was mixed with 1 ml of plasma from 6 month old WHHL rabbit. After incubation for 1 h at room temperature, the plasma was subjected to CLiP analysis (66). Radioactivity in different fractions was determined and plotted on the CLiP profile. […] This improvement was associated with a reduction in 2 markers of oxidative stress.

[2] = tested on: NZW rabbits on 1% cholesterol diet; experiment: Peptide administration to NZW rabbits on 1% cholesterol diet; format: in vivo, rabbit
Procedure: Administration of Ac-hE18A-NH2 to high fat diet administered rabbits with initial cholesterol values in the range of 600 mg/dl (1 week on 1% cholesterol diet). […] A 50% decrease in plasma cholesterol was observed after administration of the peptide.
This occurs through a lowering of plasma lipid hydroperoxide levels concomitant with a significant increase in the plasma paraoxonase (PON-1) activity. In the WHHL model, the LDL-R pathway is compromised, thus the accelerated atherogenic lipoprotein clearance is likely via the cell surface HSPG-mediated pathway, as described earlier in murine models (Garber, D. W. et al. Atherosclerosis. 163:229-237 2003).
It has been shown that very small amounts of D-4F, a class A amphipathic helical peptide, modifies several HDL properties (Navab, M., et al. Circulation 109:3215-3220 2004). […] NZW rabbits have been studied for hypercholesterolemia and relative LDL and β-VLDL production using diets containing different amounts of cholesterol (Holvoet, P. et al. Arterioscl. Thromb. Vasc. Biol. 17:2376-2382 1997). Thus, with 0.125% (w/w) cholesterol diet, LDL cholesterol levels increase; with 0.5% and higher cholesterol levels in the diet, […]-VLDL (containing apo B-100) increases dramatically. These β-VLDL particles contain increased amounts of oxidized lipids, thus enhancing the progression of atherosclerosis (Holvoet, P. et al. Arterioscl. Thromb. Vasc. Biol. 17:2376-2382 1997). To assess the effect of the peptide in this rabbit model, a 1% cholesterol diet fed NZW rabbits were utilized.
Rabbits responding to high cholesterol diet were randomized one week after the start of the diet to select rabbits with similar response (similar amounts of total plasma cholesterol). […] After 14 days from the first administration, plasma samples were taken from both the peptide-administered and saline administered (control) rabbits (n=3 in each group). The plasma samples from the peptide administered rabbits were not turbid, whereas the plasma samples from control rabbits were turbid. […] A second dose of peptide was administered 15 days after the first treatment. Since the cholesterol levels remained low two weeks after the second administration in peptide-administered rabbits, these and saline administered rabbits were sacrificed 51 days after the initiation of the diet. Aorta from the peptide administered and control rabbits were stained with Oil Red O. Aorta from the peptide administered rabbits had 40-50% less lesion than the control rabbit aorta.
Therefore, possible reasons for the clearance of atherogenic lipoproteins can be in addition to rapid hepatic clearance similar to the properties of apo E, modulation of HDL properties or synthesis of macrophage apo E. If this is true, this peptide may also exert its effect on endothelial function. Indeed it was observed that there is a recovery of endothelial function as studied by the acetylcholine dose-dependent aortal relaxation (FIG. 13). […] It is possible that lipid lowering can cause reduction of oxidative stress and thus inhibition of endothelial activation.
Results observed in HepG2 cells indicate that peptide associates with apo B-containing plasma lipoproteins to incorporate positive charges on the lipoprotein surface. This enables the apo B-containing lipoproteins to interact with heparan sulphate proteoglycans (HSPGs). The effect of these peptides on the mode of reduction of plasma cholesterol levels in mouse models and the two rabbit models can be determined. In NZW rabbits fed a 1% cholesterol-diet, a reduction of plasma cholesterol is observed which lasts for 14 days after the peptide administration; whereas in the WHHL rabbits, the reduction is initially rapid and returns to original levels within 3 days. Since the WHHL rabbit model is LDL-receptor defective, the differential effects of the peptide in two models can be due to differences in the receptor-mediated clearance pathways of atherogenic lipoproteins. […]

apo E null mice = experiment: Plasma cholesterol in apo E null mice after i.v. dual-domain peptides; format: in vivo; settings: iv, n=4
Procedure: The peptides represented are Ac-hE-18A-NH2, Ac-hE4F-NH2, and Ac-hE-Sc2F-NH2. Peptides Ac-hE-18A-NH2, Ac-hE-4F-NH2 and Ac-hE-Sc18A were administered (i.v.) to apo E null mice (n=4) and plasma cholesterol values were determined at before administration (0 min), 5 min and 2 h after administration.
As described above, peptides Ac-hE-18A-NH2, Ac-hE-4F-NH2 and Ac-hE-Sc18A were administered (iv) to apo E null mice (n=4) and plasma cholesterol values were determined at before administration (0 min), 5 min and 2 h after administration.

human VLDL = settings: cited from earlier work
[3] = tested on: atherogenic apo B-containing lipoproteins in human plasma; settings: cited from earlier work
[4] = peptide-associated VLDL, absence of apo E

## Ac-LRKLRKRLLRDWLKAFYDKVAEKLKEAF-NH2 [Ac-hE-18A-NH2]
HepG2 cells; equal amount on weight basis (50 ug/ml), first overnight incubation
  prebeta-HDL production: produced preβ-HDL
HepG2 cells; fresh cell medium without peptide
  prebeta-HDL amount after second and third overnight incubation: produced significant amounts
[1]; 100 ug 125I-labelled peptide in 1 ml plasma, 1 h room temperature
  association with WHHL plasma lipoproteins: associates with LDL
[1]; compared to plasma from untreated rabbits
  LOOH content of peptide-treated WHHL plasma LDL: reduced amounts of LOOH
[2]; 3 mg/kg i.v. twice, sacrificed 51 days after initiation of diet
  less aorta lesion than control (Oil Red O): 40-50%
[2]; 3 mg/kg i.v., 14 days after first administration, n=3
  amounts of VLDL and LDL in plasma: Significantly decreased
[2]; 3 mg/kg, saline-treated control ~50% lesion coverage
  lesion by en face analysis after 50 days: little to no lesion
[2]; 5 mg/kg iv two times, n=4 (FIG. 11 legend)
  decrease in plasma cholesterol: 50%
[2]; 5 mg/kg iv two times, n=4, control in the range of 2000 mg/dl
  plasma cholesterol values at end of 14 days: ~1000 mg/dL
[2]; 7.5 mg/kg i.v. in two intervals one week apart
  plasma cholesterol less than in control rabbits at end of experiment: 50%
[2]; NZW rabbits fed 1% cholesterol diet
  duration of reduction of plasma cholesterol after peptide administration: 14 days
[2]; aortal rings after 51 days of 1% cholesterol diet
  endothelial function, acetylcholine dose-dependent aortal relaxation: vascular response almost similar to aortas obtained from rabbits on a normal diet
[2]; single intravenous administration 3 mg/kg
  time for which total plasma cholesterol levels were significantly decreased: 15 days
Apo E null mice
  reduction in plasma cholesterol levels at 2 h time point: large reduction
3 mg/kg radiolabelled peptide
  plasma clearance of the peptide: much faster than that observed in WHHL rabbits
rabbits
  plasma residence time t1/2: 1 to 2 min
Human VLDL
  interaction with VLDL: displacement of apo E from VLDL
Human VLDL; [4]
  enhanced degradation of VLDL compared to VLDL alone: three
  enhanced uptake of VLDL compared to VLDL alone: six
[3]
  association with atherogenic apo B-containing lipoproteins: associates with atherogenic apo B-containing lipoproteins

From US8557767B2, “Synthetic apolipoprotein E mimicking polypeptides and methods of use” (UAB Research Foundation, priority 2007, dated 2013)
